Data as given in patent publication US4123456A, “Novel 11-hydroxy-9-keto-5,6-cis-13,14-cis-prostadienoic acid derivatives” (American Cyanamid Company, priority 1977, dated 1978).

Tests used:
[1] = tested on: ulcerogenic properties of indomethacin; assay: protection against the ulcerogenic properties of indomethacin; assay type: in vivo, Rats; details: 2.5 or lower considered active
Description: The compounds of this invention provide protection against the ulcerogenic properties of indomethacin. This assay was carried out in the following manner.
Rats were starved for 48 hours (water was given ad libitum). Indomethacin (20 mg./kg. of body weight) was administered by the subutaneous route and one-half the dose of the test compound was administered by gavage at the same time. After 3 hours, the second half of the test compound was administered also by Gavage. Five hours after the administration of indomethacin the animals were decapitated and the stomachs removed. The stomachs were washed with distilled water, blotted on gauze, cut along the larger curvature, and the contents rinsed with distilled water. The stomachs were spread out, pinned on a cork and visualized under magnifying glass for ulcers. The criteria for scoring of ulcers was as previously reported. [Abdel-Galil et al. Brit. J. Pharmac. Chemotherapy 33:1-14 (1968)].
1 Petechial hemmorhage or pin point ulcer
3 Many ulcers, a few large
4 Many ulcers, mainly large
Control animals treated with indomethacin but not test compound consistently give scores of about 3.0-3.5. Control animals treated with neither indomethacin nor test compound give scores of about 0.5-0.8. Compounds producing a score of 2.5 or lower are considered to be active.

gastric acid secretion = gastric acid secretion inhibition, "Shay rat" procedure; assay type: in vivo, rats (male, CFE strain); details: intraduodenal dose 100 mg./kg. of body weight; 20% or more considered active
Description: The novel compounds of the present invention are also effective inhibitors of gastric acid secretion and of ulcer development in experimental animals, and thus are potentially valuable as agents for the control of gastric acid secretion and of gastric erosion and an anti-ulcer agents. Gastric acid secretion inhibitory action is usually measured by the "Shay rat" procedure^(1,2) with some modifications as follows.
The rats (male, CFE strain) were starved for 48 hours (water was given ad libitum) to permit evacuation of stomach contents. On the morning of the experiment, under ether anesthesia, the abdominal region was shaved and a midline incision (1-1 1/2") was made with a scapel. […]
The abdominal cavity was exposed by cutting with scissors and the esophagus close to the stomach was clamped off with a hemostat, the stomach was removed by cutting above the hemostat (the esophagus was cut) and between the two sutures. […] The supernatant was collected, volume measured and recorded, 2 drops of a phenolphthalein indicator (1% in 95% ethanol) were added and the solution was titrated with 0.02N NaOH (or with 0.04N NaOH when large volumes of stomach contents were encountered) to pH 8.4 (because of usual coloring of the stomach contents, phenolphthalein was only used to permit visual indication that the end point was near) and the amount of acid present was calculated. […]

[2] = total oral dose 25 mg./kg., control score 3.2

`CCCCCC(O)/C=C/[C@H]1CCC(=O)[C@@H]1CCCCCC(CC)C(=O)O` (relative stereo) was tested, and the “Score, Treated” value ([1]; total oral dose 50 mg./kg., control score 3.0) was 2.2.
For `CCCCCC(O)/C=C/[C@H]1CCC(=O)[C@]1(C)CCCCCCC(=O)O` (relative stereo) [8β-methyl-9-oxo-15-hydroxy-13-trans-prostenoic acid], the “Score, Treated” value ([1]; total oral dose 12.5 mg./kg., control score 3.0) was 2.0.
With `CCCCC[C@@H](O)/C=C/[C@H]1CCC(=O)[C@@H]1CCCCSCC(=O)O` (relative stereo) [9-oxo-3-thia-15-epi-hydroxy-13-trans-prostenoic acid] the “Score, Treated” value [1, 2] was 2.3.
With `CCCCCC(O)/C=C/[C@H]1CCC(=O)[C@@H]1CCCCC(C)(C)CC(=O)O` (relative stereo) [9-oxo-15-hydroxy-3,3-dimethyl-13-trans-prostenoic acid] the “Percent Inhibition of gastric acid secretion” value (gastric acid secretion) was 51%.
For `CCCCCC(O)/C=C/[C@H]1CCC(=O)[C@@H]1CCCCSCC(=O)O` (relative stereo) [9-oxo-15-hydroxy-3-thia-13-trans-prostenoic acid], the “Score, Treated” value [1, 2] was 1.8.
For `CCCCCC(O)/C=C\[C@H]1CCC(=O)[C@@H]1CCCCCCC(=O)O` (relative stereo) [9-oxo-15-hydroxy-13-cis-prostenoic acid, 15-hydroxy-9-oxo-13-cis-prostenoic acid], the “Score, Treated” value ([1]; total oral dose 100 mg./kg., control score 3.0) was 1.3.
With `CCCCC(CC)C(O)/C=C/[C@H]1CCC(=O)[C@@H]1CCCCCCC(=O)O` (relative stereo) [9-oxo-15-hydroxy-16-ethyl-13-trans-prostenoic acid] the “Score, Treated” value [1, 2] was 1.7.
